# Data published in ChEMBL document CHEMBL5291721, “A preclinical secondary pharmacology resource illuminates target-adverse drug reaction associations of marketed drugs” (Nat Commun, 2023).
# *1 amine or outer side, *2 acyl side, *3 side chain or, on linkers, in order; H or OH if unused. Where a SMILES comes first, the peptide text is derived from it. Bridges are numbered along the chain shown (N, C = ends). [ ]: non-standard residue; d: D form. The star is where a group is joined. hTyr(3S-OH,4S-OH,3'-OSO3H) = N[C@H](C(=O)O)[C@H](O)[C@@H](O)c1ccc(O)c(OS(=O)(=O)O)c1; Orn(4R-OH,5R-OH) = O=C([C@H](C[C@@H](O)[C@@H](O)N[*:3])N[*:1])[*:2]; Pro(3S-OH,4S-Me) = C[C@H]1CN[C@H](C(=O)O)[C@H]1O; X1 = CCCCCOc1ccc(-c2cc(-c3ccc(C(=O)*)cc3)no2)cc1; Gln(3R-OH) = NC(=O)C[C@@H](O)[C@H](N)C(=O)O; Hyp = O=C(O)[C@@H]1C[C@@H](O)CN1
# Columns and labels:
# [1] = target: T1, Alpha-1A adrenergic receptor (Homo sapiens, UniProt P35348); type: functional, cell-based
# T1 sequence (P35348 whole entry): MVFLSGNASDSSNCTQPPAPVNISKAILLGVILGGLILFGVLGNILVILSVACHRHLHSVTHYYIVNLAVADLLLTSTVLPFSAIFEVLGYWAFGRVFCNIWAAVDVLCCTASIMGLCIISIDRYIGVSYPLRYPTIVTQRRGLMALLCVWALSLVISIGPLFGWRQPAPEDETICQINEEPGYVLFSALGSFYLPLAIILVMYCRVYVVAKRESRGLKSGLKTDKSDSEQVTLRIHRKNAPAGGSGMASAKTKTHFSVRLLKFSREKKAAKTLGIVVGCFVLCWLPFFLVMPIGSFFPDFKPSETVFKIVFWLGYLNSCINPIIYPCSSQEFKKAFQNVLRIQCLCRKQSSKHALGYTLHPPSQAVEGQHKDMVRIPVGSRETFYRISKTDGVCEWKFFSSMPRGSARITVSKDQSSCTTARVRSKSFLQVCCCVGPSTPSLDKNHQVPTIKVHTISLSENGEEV
# Progesterone receptor = target: T2, Progesterone receptor (Homo sapiens, UniProt P06401)
# T2 sequence (P06401 whole entry): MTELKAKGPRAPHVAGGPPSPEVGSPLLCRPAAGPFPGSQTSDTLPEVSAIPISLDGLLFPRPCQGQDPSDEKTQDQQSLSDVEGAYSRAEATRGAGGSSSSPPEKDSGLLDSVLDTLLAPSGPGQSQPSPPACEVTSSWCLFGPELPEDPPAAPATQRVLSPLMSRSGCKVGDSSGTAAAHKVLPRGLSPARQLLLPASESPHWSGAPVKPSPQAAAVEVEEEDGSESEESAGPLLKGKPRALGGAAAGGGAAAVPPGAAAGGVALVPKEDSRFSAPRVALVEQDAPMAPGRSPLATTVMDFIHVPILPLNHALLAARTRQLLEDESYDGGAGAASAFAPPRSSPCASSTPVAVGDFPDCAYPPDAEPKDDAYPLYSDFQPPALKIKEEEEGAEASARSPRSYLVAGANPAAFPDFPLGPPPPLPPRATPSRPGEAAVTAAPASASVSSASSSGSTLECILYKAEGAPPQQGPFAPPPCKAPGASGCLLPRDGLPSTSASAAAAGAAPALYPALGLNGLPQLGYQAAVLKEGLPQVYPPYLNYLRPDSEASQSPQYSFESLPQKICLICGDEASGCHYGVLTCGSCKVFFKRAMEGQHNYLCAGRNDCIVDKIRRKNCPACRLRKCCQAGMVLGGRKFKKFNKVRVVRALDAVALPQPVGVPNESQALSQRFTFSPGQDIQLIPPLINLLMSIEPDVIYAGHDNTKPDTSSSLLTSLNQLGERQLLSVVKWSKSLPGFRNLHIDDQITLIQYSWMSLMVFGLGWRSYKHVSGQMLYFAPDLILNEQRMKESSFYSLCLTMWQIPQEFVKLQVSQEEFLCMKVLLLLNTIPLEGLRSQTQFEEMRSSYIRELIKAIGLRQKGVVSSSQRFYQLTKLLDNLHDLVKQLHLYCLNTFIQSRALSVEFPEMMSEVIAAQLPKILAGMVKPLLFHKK
# [2] = target: T1, Alpha-1A adrenergic receptor; type: functional, cell-based; remark: listed apart in the source
# [3] = target: 5-hydroxytryptamine receptor 2B (Homo sapiens, UniProt P41595); type: functional, cell-based
# Chain of 5-hydroxytryptamine receptor 2B (P41595 whole entry): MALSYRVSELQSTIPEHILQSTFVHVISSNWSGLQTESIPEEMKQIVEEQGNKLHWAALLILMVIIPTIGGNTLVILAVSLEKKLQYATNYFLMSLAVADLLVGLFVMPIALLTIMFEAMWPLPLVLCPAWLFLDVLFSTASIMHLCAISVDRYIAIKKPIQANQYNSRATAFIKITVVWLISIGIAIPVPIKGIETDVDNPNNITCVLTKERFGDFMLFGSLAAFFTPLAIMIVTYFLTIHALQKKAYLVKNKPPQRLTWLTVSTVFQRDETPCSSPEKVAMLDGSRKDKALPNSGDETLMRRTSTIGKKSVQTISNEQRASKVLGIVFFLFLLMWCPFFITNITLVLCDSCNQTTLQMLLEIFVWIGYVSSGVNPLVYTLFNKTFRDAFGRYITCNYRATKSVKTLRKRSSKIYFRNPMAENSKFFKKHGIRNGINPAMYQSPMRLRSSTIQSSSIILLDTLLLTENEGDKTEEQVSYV
# Adenosine receptor A1 = target: T3, Adenosine receptor A1 (Homo sapiens, UniProt P30542)
# T3 sequence (P30542 whole entry): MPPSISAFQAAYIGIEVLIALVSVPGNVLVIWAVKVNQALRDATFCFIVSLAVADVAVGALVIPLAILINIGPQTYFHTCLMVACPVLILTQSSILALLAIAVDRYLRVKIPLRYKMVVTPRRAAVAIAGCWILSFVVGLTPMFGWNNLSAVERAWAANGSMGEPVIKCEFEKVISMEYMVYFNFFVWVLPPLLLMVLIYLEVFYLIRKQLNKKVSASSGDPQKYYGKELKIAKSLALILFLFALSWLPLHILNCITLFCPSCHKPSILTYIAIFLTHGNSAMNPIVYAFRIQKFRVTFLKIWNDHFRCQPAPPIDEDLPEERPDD
# [4] = target: T4, Gastrin/cholecystokinin type B receptor (Homo sapiens, UniProt P32239)
# T4 sequence (P32239 whole entry): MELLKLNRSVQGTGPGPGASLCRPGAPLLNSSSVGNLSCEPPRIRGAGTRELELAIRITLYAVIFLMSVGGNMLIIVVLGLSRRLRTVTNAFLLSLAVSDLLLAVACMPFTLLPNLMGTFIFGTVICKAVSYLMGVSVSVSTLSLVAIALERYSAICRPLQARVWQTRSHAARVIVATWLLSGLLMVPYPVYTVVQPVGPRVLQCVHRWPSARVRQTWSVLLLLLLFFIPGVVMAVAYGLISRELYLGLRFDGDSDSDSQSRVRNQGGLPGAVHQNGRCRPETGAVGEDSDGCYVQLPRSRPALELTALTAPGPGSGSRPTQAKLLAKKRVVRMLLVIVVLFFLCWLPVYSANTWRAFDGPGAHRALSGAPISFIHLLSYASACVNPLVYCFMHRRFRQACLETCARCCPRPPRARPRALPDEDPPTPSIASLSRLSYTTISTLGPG
# [5] = target: Neuronal acetylcholine receptor subunit alpha-4 (Homo sapiens, UniProt P43681)
# Chain of Neuronal acetylcholine receptor subunit alpha-4 (P43681 whole entry): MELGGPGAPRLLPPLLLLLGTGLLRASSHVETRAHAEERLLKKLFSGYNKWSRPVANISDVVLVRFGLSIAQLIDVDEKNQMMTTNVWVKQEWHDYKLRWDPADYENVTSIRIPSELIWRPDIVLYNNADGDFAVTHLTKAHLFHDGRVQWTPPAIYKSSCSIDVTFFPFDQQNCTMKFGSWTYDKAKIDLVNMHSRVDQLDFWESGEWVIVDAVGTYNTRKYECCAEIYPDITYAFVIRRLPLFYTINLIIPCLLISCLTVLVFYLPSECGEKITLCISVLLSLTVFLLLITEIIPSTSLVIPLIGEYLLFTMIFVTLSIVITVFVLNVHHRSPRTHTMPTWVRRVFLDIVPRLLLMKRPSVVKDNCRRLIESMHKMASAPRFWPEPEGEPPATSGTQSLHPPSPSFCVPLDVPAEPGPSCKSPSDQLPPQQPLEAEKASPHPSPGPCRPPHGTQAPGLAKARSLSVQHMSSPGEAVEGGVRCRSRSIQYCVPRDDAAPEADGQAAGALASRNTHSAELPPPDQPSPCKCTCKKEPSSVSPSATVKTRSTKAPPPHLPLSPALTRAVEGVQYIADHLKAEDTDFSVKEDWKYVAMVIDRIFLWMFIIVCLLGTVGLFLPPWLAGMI
# Thromboxane A2 receptor = target: T5, Thromboxane A2 receptor (Homo sapiens, UniProt P21731)
# T5 sequence (P21731 whole entry): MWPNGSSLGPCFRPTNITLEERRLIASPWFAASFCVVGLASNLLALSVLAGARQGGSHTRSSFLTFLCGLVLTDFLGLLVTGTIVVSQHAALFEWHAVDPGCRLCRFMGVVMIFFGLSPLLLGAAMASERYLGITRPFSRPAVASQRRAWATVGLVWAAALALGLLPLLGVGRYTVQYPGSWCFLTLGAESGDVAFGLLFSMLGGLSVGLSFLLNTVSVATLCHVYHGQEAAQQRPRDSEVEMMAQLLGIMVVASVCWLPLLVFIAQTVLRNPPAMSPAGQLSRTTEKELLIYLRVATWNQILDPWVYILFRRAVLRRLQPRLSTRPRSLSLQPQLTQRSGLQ
# Further: assay procedure not described here.
SMILES,AC50 [1] [µM],AC50 (Progesterone receptor) [µM],also measured
CN1CCC[C@@H]1Cc1c[nH]c2ccc(CCS(=O)(=O)c3ccccc3)cc12,> 30,> 30,–
COc1nccnc1NS(=O)(=O)c1ccc(N)cc1,> 30,–,–
O=C(Nc1cccc2c(=O)cc(-c3nnn[nH]3)oc12)c1ccc(OCCCCc2ccccc2)cc1,> 30,6.23,–
NC(=O)c1nc(F)c[nH]c1=O,> 30,> 30,–
CN(C)CCCN1C(=O)c2cc([N+](=O)[O-])ccc2Oc2ccccc21,> 30,> 30,–
O=S(=O)(O)CCS [2-MERCAPTOETHANESULFONIC ACID],> 30,> 30,–
O=C(O)COc1nn(Cc2ccccc2)c2ccccc12 [BENDAZAC],> 30,> 30,–
Cc1ccc([C@@H]2O[C@H](CO)[C@@H](O)[C@H](O)[C@H]2O)cc1Cc1ccc(-c2ccc(F)cc2)s1 [CANAGLIFLOZIN ANHYDROUS],> 30,> 30,–
O=C(O)CCCc1ccc(N(CCCl)CCCl)cc1 [CHLORAMBUCIL],> 30,> 30,–
CN(C)CCN(Cc1ccc(Cl)cc1)c1ccccn1 [CHLOROPYRAMINE],> 30,> 30,–
O=C(O)c1cc(=O)c2ccccc2o1 [CHROMOCARB],> 30,> 30,–
CN(CC(=O)O)C(=N)N [CREATINE],> 30,> 30,–
N[C@@H](CSSC[C@H](N)C(=O)O)C(=O)O [CYSTINE],> 30,> 30,–
Cn1c(=O)c2c(ncn2CC(O)CO)n(C)c1=O (configuration not stated) [DYPHYLLINE],> 30,> 30,–
C[C@]12CC[C@@H]3c4ccc(O)cc4CC[C@H]3[C@@H]1CC[C@@H]2OC(=O)CCC1CCCC1 [ESTRADIOL CYPIONATE],> 30,1.65,–
CCC(=O)O[C@@H](O[P@](=O)(CCCCc1ccccc1)CC(=O)N1C[C@H](C2CCCCC2)C[C@H]1C(=O)O)C(C)C [FOSINOPRIL],–,> 30,AC50 [2]: > 30 µM; AC50 [3]: > 30 µM
CC1(C)O[C@@H]2C[C@H]3[C@@H]4CCC5=CC(=O)CC[C@]5(C)[C@@]4(F)[C@@H](O)C[C@]3(C)[C@]2(C(=O)CCl)O1 [HALCINONIDE],> 30,0.003,–
C[C@]12CCC(=O)C=C1CC[C@@H]1[C@@H]2[C@@H](O)C[C@@]2(C)[C@H]1CC[C@]2(O)C(=O)COC(=O)CCC(=O)O [HYDROCORTISONE HEMISUCCINATE ANHYDROUS],> 30,> 30,–
N=C(N)NCc1cccc([123I])c1 [IOBENGUANE I 123],> 30,> 30,–

SMILES,AC50 [1] [µM],AC50 (Progesterone receptor) [µM],also measured
CC(C)(N)C(=O)N[C@H](Cc1c[nH]c2ccccc12)C(=O)N[C@H](Cc1c[nH]c2ccccc12)NC=O [MACIMORELIN],> 30,> 30,–
C=C1c2c(Cl)ccc(O)c2C(=O)C2=C(O)[C@]3(O)C(=O)C(C(N)=O)=C(O)[C@@H](N(C)C)[C@@H]3[C@@H](O)[C@H]12 [MECLOCYCLINE],> 30,> 30,–
Cc1cc2c(OCC(O)CNC(C)C)cccc2[nH]1 (configuration not stated) [MEPINDOLOL],> 30,> 30,–
"CCCCCOc1ccc(-c2cc(-c3ccc(C(=O)N[C@H]4C[C@@H](O)[C@@H](O)NC(=O)[C@@H]5[C@@H](O)[C@@H](C)CN5C(=O)[C@H]([C@H](O)CC(N)=O)NC(=O)[C@H]([C@H](O)[C@@H](O)c5ccc(O)c(OS(=O)(=O)O)c5)NC(=O)[C@@H]5C[C@@H](O)CN5C(=O)[C@H]([C@@H](C)O)NC4=O)cc3)no2)cc1 [MICAFUNGIN] (X1-[Orn(4R-OH,5R-OH)]T[Hyp][hTyr(3S-OH,4S-OH,3'-OSO3H)][Gln(3R-OH)][Pro(3S-OH,4S-Me)]; lactam 1-C)",> 30,3.87,–
CCOc1cc(N)c(Cl)cc1C(=O)NCC1CN(Cc2ccc(F)cc2)CCO1 (configuration not stated) [MOSAPRIDE],> 30,> 30,–
CCOc1ccc2ccccc2c1C(=O)N[C@@H]1C(=O)N2[C@@H]1SC(C)(C)[C@@H]2C(=O)O [NAFCILLIN],> 30,> 30,–
CN1CCC[C@H]1c1cccnc1 [NICOTINE],> 30,> 30,–
C#C[C@]1(O)CC[C@H]2[C@@H]3CCC4=C(CCC(=O)C4)[C@H]3CC[C@@]21C [NORETHYNODREL],> 30,–,–
CN(C)c1cc(CNCC(C)(C)C)c(O)c2c1C[C@H]1C[C@H]3[C@H](N(C)C)C(O)=C(C(N)=O)C(=O)[C@@]3(O)C(O)=C1C2=O [OMADACYCLINE],–,> 30,AC50 (Adenosine receptor A1): > 30 µM; AC50 [2]: > 30 µM; AC50 [4]: > 30 µM; AC50 [5]: > 30 µM; AC50 [3]: > 30 µM
CCCCCCCCCCC[C@@H](C[C@@H]1OC(=O)[C@H]1CCCCCC)OC(=O)[C@H](CC(C)C)NC=O [ORLISTAT],> 30,> 30,–
O=C1[C@H]2CCCC[C@H]2C(=O)N1CCCCN1CCN(c2nsc3ccccc23)CC1 [PEROSPIRONE],> 30,> 30,–
CN(C)CCC(c1ccccc1)c1ccccn1 (configuration not stated) [PHENIRAMINE],> 30,> 30,–
CNC[C@H](O)c1cccc(O)c1 [PHENYLEPHRINE],–,> 30,AC50 (Adenosine receptor A1): > 30 µM; AC50 [4]: > 30 µM; AC50 [5]: > 10 µM; AC50 [3]: > 30 µM; AC50 (Thromboxane A2 receptor): > 30 µM
CC(C)COc1ccc(CNC(=O)N(Cc2ccc(F)cc2)C2CCN(C)CC2)cc1 [PIMAVANSERIN],> 30,> 30,–
CC(C)(C)C(=O)NCCCC(=O)O [PIVAGABINE],> 30,–,–
CC(C)[N+](C)(CCOC(=O)C1c2ccccc2Oc2ccccc21)C(C)C [PROPANTHELINE],> 30,> 30,–
CNC(=O)c1cc(Oc2ccc(NC(=O)Nc3ccc(Cl)c(C(F)(F)F)c3)c(F)c2)ccn1 [REGORAFENIB],–,> 3,AC50 [2]: > 30 µM; AC50 [5]: > 30 µM
CN1CCN(CCCN2c3ccccc3Sc3ccc(S(=O)(=O)N(C)C)cc32)CC1 [THIOPROPERAZINE],–,> 30,AC50 [2]: > 30 µM; AC50 [3]: > 30 µM
